According to patent US8916586B2, “Anti-angiogenic compound” (University College Dublin—National University of Ireland, …, priority 2011, dated 2014):
“Also recorded” adds a separate entry of the source.

Tests used:
[1] = system: hyaloid vasculature in zebrafish; experiment: Zebrafish developmental angiogenesis assay: number of primary branches of hyaloid vasculature on dissected lens; format: in vivo; conditions: for dose-dependence of inhibition of hyaloid vasculature development: increasing concentrations between 1-10 μM, 5 dpf; for inhibition of intraocular angiogenesis (hyaloid vessels) in library screen: 5 day old larvae
From the text: We have used the zebrafish model as an in vivo screen for chemical libraries as the small size and transparency of the zebra fish enables high-content screens in multi-well plate formats (MacRae and Peterson, 2003; Pichler et al., 2003; Peterson et al., 2004; den Hertog, 2005; Zon and Peterson, 2005). […] To identify anti-angiogenic drugs we used a transgenic line of zebrafish that expresses a fluorescent reporter (EGFP) specifically in vasculature (Tg(fli1:efgp)). This line was obtained from the Zebrafish International Resource Center. Our assay involved screening the effect of drugs in the library on the development of blood vessels in zebrafish. Specifically, we looked at the integrity of vessels developing in the eye (hyaloid vessels attached to the lens) and in the trunk.
All experiments were carried out under ethical approval granted by the UCD animal research ethics committee. Tg(fli1:EGFP) zebrafish were maintained according to standard procedures on a 14 hr light/10 hr dark cycle at 28° C. Referring to the schematic of FIG. 1A, embryos were obtained by natural spawning and developmental stages established by time and morphological criteria. A chemical library containing numerous compounds was screened (FIG. 1A). In this specific example, the chemical library contained 5000 compounds of the DIVERSet™ collection from ChemBridge Corp., USA. At 24 hours post fertilisation (hpf), 5 embryos per well were placed in […] of Embryo Medium/1% DMSO and incubated with drug at 28° C. on a 14 h light/10 h dark cycle. Larvae were euthanised, and fixed in 4% PFA at 4° C. overnight before analysis. (FIG. 1A).
Right lenses were dissected from the larvae and transferred to depression slides for observation under epi-fluorescence in the Olympus SZX16 and to cover-slip bottom Petri-dishes for confocal microscopy in a Zeiss UV510 META LSM system (20× and 40× inverted objectives). To achieve appropriate orientation, lenses were embedded in 10% methyl-cellulose and manipulated with a tungsten needle (0.5 mm diameter). Patterning of the hyaloid vessels on the treated larval lenses was compared to DMSO controls and the archetypal pattern previously described (Alvarez et al., 2007; Alvarez et al., 2009). The number of primary vessels radiating from the back of the lens (3-4 main branches at 5 dpf in controls and previously described), was counted and the average number was graphed for each drug. From screens of ˜1600 small molecules, four “hits” that inhibited the number of primary hyaloids vessels were identified (FIG. 1B).
To validate the “hits” from the library screen, dose-dependence experiments were conducted by screening the drugs in the assay described in Example 2 above but at a range of increasing concentrations between 1-10 μM. Larvae were maintained under the drug treatments at 28° C. on 14 hr light/10 hr dark cycle until 5 days post fertilisation (dpf), when they were euthanised and fixed in 4% PFA at 4° C. overnight before analysis. The average number of primary hyaloids branches was graphed for each concentration of drug. […] One of the lead compounds identified by the screen of chemical library was 11B which has the chemical name 2-[2-2-quinolinyl)vinyl]phenol and its structure shown below: […]

[2] = system: dermal-derived normal human microvascular endothelial cells (HMVEC-d); experiment: HMVEC-d cell migration (CIM-plate 16, xCELLigence); format: cell-based; conditions: 100 nM (FIG. 13)
Protocol: (§1) HMVEC-d were purchased from Clonetics, San Diego, Calif., USA. Cells were maintained in complete Endothelial Cell Medium (Clonetics® EGM®-2-MV BulletKit®) containing 500 ml of Endothelial Cell Basal Medium-2 and supplemented with hEGF, 0.5 ml; Hydrocortisone, 0.2 ml; GA-1000, 0.5 ml; FBS, 25 ml; VEGF, 0.5 ml; hFGF-B, 2.0 ml; R3-IGF-1, 0.5 ml; Ascorbic Acid, 0.5 ml in a 37° C. humidified atmosphere of 5% CO2/95% air. HMVEC-d were used for experiments between passages 4-8.
Continuous monitoring of HMVEC-d cultures cell migration was recorded using a CIM-plate 16 (RTCA DP Analyser, xCELLigence System, Roche) with 5% serum serving as chemoattractant and following the manufacturer's protocol. Each well is composed of an upper chamber, a membrane with an interdigitated gold electrode on the underside of the microporous membrane (facing the lower chamber) and a lower chamber. Cells that have migrated to the lower chamber containing the chemoattractant attach to the gold electrodes and generate electrical impedance. Impedance readings are taken from an electronic sensor plate and reflect their attachment levels. […] The upper chamber was then clicked into position and 30 μl of serum-free media were added to cover the membrane surface. […] 5% CO2 humidified atmosphere and the Cell Index (CI) was recorded every 15 min. […]

[3] = system: dermal-derived normal human microvascular endothelial cells (HMVEC-d); experiment: In vitro HMVEC-d tube formation assay on Matrigel; format: cell-based; conditions: 100 nM, 20 hr
Protocol: as §1
Matrigel (Becton Dickenson) basement membrane matrix was used to examine HMVEC-d tube formation. Matrigel (50 μl) was plated in 96 well culture plate wells after thawing on ice and allowed to polymerise at 37° C. 5% CO2 humidified atmosphere for 1 hr. HMVEC-d were removed from culture, trypsinised, and resuspended in full strength EGM growth medium. Cells were seeded at a density of 50×10^4 cells/cm^2 and incubated for 20 hr at 37° C. 5% CO2 humidified atmosphere. Endothelial cell tubule formation was assessed using phase contrast microscopy and photographed. A connecting branch between two discrete ECs was counted as one tube. The tube analysis was determined from 3 sequential fields (magnification×10) focusing on the surface of the matrigel.

[4] = system: VEGF secreted from explant cultures of human colorectal cancers; experiment: VEGF secretion from human colorectal tumour explants (ELISA); format: cell-based; conditions: 72 hours
Protocol: (§2) Human colorectal tumour samples were taken directly from the pathology laboratory after surgery once adequate material was taken for diagnostic testing. The tumour samples were washed and stored in DMSO/tumour conditioning media (TCM). The samples were snap-frozen in liquid nitrogen and stored at −80° C. until compound testing was performed. Prior to compound testing, the tumours were thawed and incubated in fresh TCM for 24 hours. […] The TCM solutions were collected and stored at −20° C. and the remaining tumour explants were snap-frozen in liquid nitrogen and stored at −80° C. The protein content of each tumour sample was determined using the BCA protein assay. ELISA was used to determine the levels of VEGF, IL-8, MCP-1, GRO-α, IL-1β and IL-6. The secretion data were normalised according to the tumour sample's protein content.

[5] = system: IL-1β secreted from explant cultures of human colorectal cancers; experiment: IL-1β secretion from human colorectal tumour explants (ELISA); format: cell-based; conditions: 72 hours; for level of IL-1β secreted by human tumour explants: 1 μM and 10 μM tested, concentration not given at place; for level of IL-1b secreted by human tumour explants: 10 μM
Protocol: as §2

[6] = 5 μM, treated day 1-5, analysed 5 dpf
[7] = 10 μM, treated day 1-5, analysed 5 dpf
[8] = 1 μM and 10 μM tested, concentration not given at place

Row | Structure (SMILES) | number of primary branches of hyaloid vasculature ([1]; 4 μM, analysed 5 dpf) | number of primary branches of hyaloid vasculature [1, 6] | number of primary branches of hyaloid vasculature ([1]; 7.5 μM, analysed 5 dpf) | anti-angiogenic effect compared with Avastin, number of primary hyaloid branches ([1]; 10 μM) | number of primary branches of hyaloid vasculature [1, 7] | dose-dependence of inhibition of hyaloid vasculature development [1] | inhibition of intraocular angiogenesis (hyaloid vessels) in library screen [1] | effect on HMVEC-d cell migration [2] | inhibition of HMVEC-d tubule formation [3] | level of VEGF secreted by human tumour explants [4, 8] | level of VEGF secreted by human tumour explants ([4]; 10 μM) | level of IL-1β secreted by human tumour explants [5] | level of IL-1b secreted by human tumour explants [5] | reduction of tubule formation compared to control [3] [%] | level of VEGF secreted by human tumour explants ([4]; 1 μM)
1 | Oc1ccccc1/C=C/c1ccc2ccccc2n1 [11B] | significant inhibition | significant inhibition; also recorded: significant reduction | significant inhibition | more effective anti-angiogenic effect than Avastin | significant inhibition; also recorded: significant reduction | dose-dependent and statistically significant manner; also recorded: dose-dependent inhibition | inhibit intraocular angiogenesis | no significant effect; also recorded: neither 11B nor 11F had a significant effect; also recorded: neither 11B nor 11F had significant effects | significantly inhibits | significantly reduced | significantly reduces | significantly reduced | significantly reduces | – | –
2 | COc1cc2c(C3CCCN3C)cnc(Cc3ccc4c(c3)OCO4)c2cc1OC (stereo not drawn) [11F, 1-(1,3-benzodioxol-5-ylmethyl)-6,7-dimethoxy-4-(1-methyl-2-pyrrolidinyl)isoquinoline] | – | significant inhibition | – | – | significant inhibition | dose-dependent and statistically significant manner | inhibit intraocular angiogenesis | no significant effect; also recorded: neither 11B nor 11F had a significant effect; also recorded: neither 11B nor 11F had significant effects | – | significantly reduced | significantly reduced | significantly reduced | significantly reduced | 9 | significantly reduced
